Active and inactive are the calls of the source. How the calls were made is not given here.
molecular target: HIV-1 integrase / human LEDGF/p75 complex; experiment: blockers of LEDGF/p75-dependent integrase activity – biochemical, TR-FRET, dose response (AID 1053172); conditions: TR-FRET integrase-LEDGF/p75 DNA integration

| SMILES | IC50 |
| --- | --- |
| C[C@@H]1O[C@@H](Oc2c(-c3cc(O)c(O)c(O)c3)oc3cc(O)cc(O)c3c2=O)[C@H](O)[C@H](O)[C@H]1O | 1.64 µM |
| C=C(C)C(=O)Nc1cccc(C2=NOC3(C2)C[C@@H](C(N)=O)N(C(=O)/C=C/C=C/C)C3)c1 (some centres undefined) | 3.25 µM |
| Cc1cc(/C=C2\C(=O)NC(=O)N(c3ccccc3F)C2=O)c(C)n1-c1cc(C(=O)O)cc(C(=O)O)c1 | 0.815 µM |
| O=C1CC(=O)N(Cc2ccco2)C(=O)N1 | 0.691 µM |
| C[n+]1c2cc(N)ccc2cc2ccc(N)cc21 | 5.49 µM |
| CN=c1scc(C)n1/N=C/c1ccc(O)c(O)c1O | 4.74 µM |
| CCCNC1=C(C)C(=O)C2=C(C1=O)C(COC(N)=O)[C@]1(OC)C3NC3CN21 (some centres undefined) | inactive |
| O=c1cc(-c2ccc(O)cc2)oc2c(O)c(O)c(O)c(O)c12 | 0.341 µM |
| O=C(O)c1ccc(-n2cccc2/C=C2/NC(=O)N(c3ccccc3)C2=O)cc1 | 2.85 µM |
| Oc1ccc(NCc2ccccc2OCc2ccccc2)cc1 | > 36.5 µM (inactive) |
| Nc1nc(-c2ccco2)c(-c2ccco2)s1 | > 36.5 µM (inactive) |
| Nc1ccc2cc3ccc(N)cc3nc2c1 | 4.46 µM |
| O=c1[nH]c2cc3c(cc2cc1CN(Cc1cccnc1)Cc1nnnn1Cc1ccco1)OCCO3 | inactive |
| C=C(C)C(=O)Nc1cccc(C2=NOC3(C2)C[C@@H](C(N)=O)N(C(=O)C2(C)CC2)C3)c1 (some centres undefined) | 2.39 µM |
| O=C(O)C1Nc2c(O)cccc2C2C=CCC12 (centres undefined) | 0.754 µM |
| CN(C)C1C(=O)C(C(N)=O)=C(O)C2(O)C(=O)C3=C(O)c4c(O)cccc4C(C)(O)C3C(O)C12 (centres undefined) | inactive |
| CC1=CC(C)(C)N2C(=O)C(=Nc3ccc(O)cc3)c3cccc1c32 | > 12.2 µM (inactive) |
| COc1ccccc1OCC(=O)N/N=C/C=C/c1ccc([N+](=O)[O-])o1 | > 36.5 µM (inactive) |
| Cc1ccc(N2C(=O)NC(=O)/C(=C/c3ccoc3)C2=O)cc1 | 2 µM |
| Oc1ccc(/C=N/N=C/c2ccc(O)c(O)c2)cc1O | 0.191 µM |
| O=C1c2ccccc2C(=O)N1/N=C/c1ccc(O)c(O)c1 | 3 µM |
| COP(=O)(OC)c1ccc(NCc2cc(O)ccc2O)cc1 | inactive |
| O=C(CCN1C(=O)/C(=C/c2ccco2)SC1=S)Nc1ccc(O)cc1C(=O)O | inactive |
| COc1cc(/C=C(\C#N)C(=O)c2ccc(O)c(O)c2)cc(I)c1O | 0.752 µM |
| C=C1c2cccc(O)c2C(=O)C2C(=O)[C@]3(O)C(=O)C(C(N)=O)C(=O)[C@@H](N(C)C)[C@@H]3[C@@H](O)[C@H]12 (some centres undefined) | 4.76 µM |

| SMILES | IC50 |
| --- | --- |
| CCCCCn1c(NC(=O)c2ccco2)c(S(=O)(=O)c2ccc(C)cc2)c2nc3ccccc3nc21 | inactive |
| CCOc1ccc(NC(=O)CN(C)C(=O)c2cc3c(s2)CCC3)cc1OCC | 9.57 µM |
| O=C1/C(=C\c2ccc(O)c(O)c2)C(c2ccccc2)=NN1c1ccccc1 | inactive |
| O=[N+]([O-])c1ccccc1NC(=S)N/N=C/c1ccc(O)c(O)c1 | 2.51 µM |
| N#C/C(=C\c1ccc(O)c(O)c1)C(=O)c1ccc(O)c(O)c1 | 0.0795 µM |
| c1coc(-c2ccc3nncn3c2)c1 | 1.18 µM |
| O=C(Cn1cnc([N+](=O)[O-])n1)c1ccc(O)c(O)c1 | inactive |
| NC1=C(Cl)C(=O)c2ccc(S(N)(=O)=O)cc2C1=O | 0.429 µM |
| CN(C(=O)COC(=O)c1cc(-c2ccco2)nc2ccccc12)C1CCS(=O)(=O)C1 (centres undefined) | 7.42 µM |
| C=CCn1c(C)cc(C(=O)Cn2ncc(Cl)c(Cl)c2=O)c1C | inactive |
| O=C(N/N=C/c1cccnc1)c1cc(O)c(O)c(O)c1 | inactive |
| O=C1C=C(O)c2c(O)cc(O)c(O)c2C1=O | 0.742 µM |
| O=Cc1ccc2oc3nc4n(c(=O)c3c(=O)c2c1)CCCS4 | 1.81 µM |
| O=C(NN1C(=O)/C(=C/c2ccc(O)c(O)c2)SC1=S)c1ccccc1 | 1.8 µM |
| O=S(=O)(O)c1ccc(O)c2cc(Nc3ccccc3)ccc12 | 0.723 µM |
| O=C1S/C(=C\C=C\c2ccco2)C(=O)N1c1ccc(O)cc1 | 9.56 µM |
| NC(=O)CC1Nc2cccc3cccc(c23)NC1=O (centres undefined) | > 36.5 µM (inactive) |
| COc1ccc(/C=C2\C(=O)NC(=O)c3ccccc32)cc1OC | 3.94 µM |
| O=C1/C(=C/C=C/c2ccco2)SC(=S)N1c1ccc(O)cc1 | 2.66 µM |
| CN(CCC#N)C(=O)COC(=O)c1c2c(nc3ccccc13)/C(=C\c1ccco1)CC2 | 2.56 µM |
| COc1c(-c2ccc(O)c(O)c2)oc2cc(O)cc(O)c2c1=O | 1.9 µM |
| COc1ccc(/C=N/NC(=O)c2cc(O)c(O)c(O)c2)cc1Cn1cc([N+](=O)[O-])cn1 | 0.689 µM |
| O=C(N/N=C/c1ccc(O)cc1O)C(=O)N/N=C/c1ccc(O)cc1O | 0.177 µM |
| Cc1ccc(N=C2NC(=O)/C(=C/C=C/c3ccco3)S2)cc1 | 9.14 µM |
| CC(=O)c1ccc(NC(=O)CSc2nnc(-c3ccco3)c(-c3ccco3)n2)cc1 | 6.38 µM |

| SMILES | IC50 |
| --- | --- |
| Cc1ccc(-c2csc(NS(=O)(=O)c3cccc(F)c3)n2)o1 | inactive |
| O=c1c(OC2OC(CO)C(O)C(O)C2OC2OC(CO)C(O)C(O)C2O)c(-c2ccc(O)cc2)oc2cc(O)cc(O)c12 (centres undefined) | 8.05 µM |
| S=c1[nH]nc(-c2ccco2)n1/N=C/C=C/c1ccco1 | inactive |
| C/C(=N\NC(=O)c1cc(O)ccc1O)c1cccc(NC(=O)c2ccc(Cl)cc2)c1 | inactive |
| O=C(O)c1ccc(NC2=C/C(=N/S(=O)(=O)c3cccs3)c3ccccc3C2=O)cc1 | 0.996 µM |
| O=C(O)c1cc(O)c2c(c1)[C@H]([C@H]1c3cc(C(=O)O)cc(O)c3C(=O)c3c(O[C@@H]4O[C@H](CO)[C@@H](O)[C@H](O)[C@H]4O)cccc31)c1cccc(OC3O[C@H](CO)[C@@H](O)[C@H](O)[C@H]3O)c1C2=O (some centres undefined) | 1.05 µM |
| COc1ccc(NS(=O)(=O)c2ccc3c(c2)[C@H]2C=CC[C@H]2[C@@H](c2ccc(C(=O)O)cc2)N3)cc1 | 2.12 µM |
| CCN=c1scc(C)n1/N=C/c1ccc(O)c(O)c1O | 5.61 µM |
| C=C(C)C(=O)Nc1cccc(C2=NOC3(C2)C[C@@H](C(N)=O)N(C(=O)/C(C)=C/C)C3)c1 (some centres undefined) | 3.25 µM |
| O=C1C=C(Nc2ccccc2O)c2ccccc2C1=O | 7.39 µM |
| CSc1nc(N(CCO)CCO)c2sc3nc(-c4ccco4)c4c(c3c2n1)CCC4 | 4.85 µM |
| CC1OC(OCC2OC(Oc3c(-c4ccc(O)cc4)oc4cc(O)cc(O)c4c3=O)C(O)C(O)C2O)C(O)C(O)C1O (centres undefined) | 8.68 µM |
| NS(=O)(=O)c1ccc(N/N=C/c2ccc(O)c(O)c2O)c([N+](=O)[O-])c1 | 1.24 µM |
| NC1=NC(=O)/C(=C\c2ccco2)S1 | 3.99 µM |
| N#C/C(=C\c1ccc(O)c(O)c1)C(=O)Nc1cccc2ncccc12 | 1.07 µM |
| Oc1ccc(-c2cn3c(n2)SCC3)cc1O | 1.48 µM |
| CC1CCCC(C)N1/N=C/c1ccc(O)c(O)c1 (centres undefined) | 3.37 µM |
| O=S(=O)(O)c1cc(Cl)cc(N=Nc2ccc(O)cc2O)c1O | 9.94 µM |
| O=C1NC(=S)NC(=O)C1=Cc1cccn1-c1ccc(O)cc1 | 2.21 µM |
| C=C1c2cccc(O)c2C(O)=C2C(=O)[C@]3(O)C(O)=C(C(N)=O)C(=O)[C@@H](N(C)C)[C@@H]3[C@@H](O)[C@H]12 | 2.73 µM |
| COc1ccc(C(=O)CSc2nnc(-c3ccco3)c(-c3ccco3)n2)cc1 | 6.45 µM |
| O=C1NC(=Nc2ccccc2)S/C1=C\C=C\c1ccco1 | 4.38 µM |
| CCOC(=O)c1cc2c(=Cc3ccc(N(C)C)cc3)c3ccccc3n2[n+]1C | inactive |
| O=C(Cc1cnn(-c2ccccc2)c1)c1ccc(O)c(O)c1O | > 36.5 µM (inactive) |

— PubChem BioAssay AID1053172 (The Scripps Research Institute Molecular Screening Center, 2014)
